Reference: patent US10251860B2, “Compounds for bone healing” (University of Pittsburgh—Of the Commonwealth System of …, priority 2015, dated 2019)

Molecular target: T1, PKD1 (Homo sapiens, UniProt Q15139)
T1 sequence (Q15139 1-912): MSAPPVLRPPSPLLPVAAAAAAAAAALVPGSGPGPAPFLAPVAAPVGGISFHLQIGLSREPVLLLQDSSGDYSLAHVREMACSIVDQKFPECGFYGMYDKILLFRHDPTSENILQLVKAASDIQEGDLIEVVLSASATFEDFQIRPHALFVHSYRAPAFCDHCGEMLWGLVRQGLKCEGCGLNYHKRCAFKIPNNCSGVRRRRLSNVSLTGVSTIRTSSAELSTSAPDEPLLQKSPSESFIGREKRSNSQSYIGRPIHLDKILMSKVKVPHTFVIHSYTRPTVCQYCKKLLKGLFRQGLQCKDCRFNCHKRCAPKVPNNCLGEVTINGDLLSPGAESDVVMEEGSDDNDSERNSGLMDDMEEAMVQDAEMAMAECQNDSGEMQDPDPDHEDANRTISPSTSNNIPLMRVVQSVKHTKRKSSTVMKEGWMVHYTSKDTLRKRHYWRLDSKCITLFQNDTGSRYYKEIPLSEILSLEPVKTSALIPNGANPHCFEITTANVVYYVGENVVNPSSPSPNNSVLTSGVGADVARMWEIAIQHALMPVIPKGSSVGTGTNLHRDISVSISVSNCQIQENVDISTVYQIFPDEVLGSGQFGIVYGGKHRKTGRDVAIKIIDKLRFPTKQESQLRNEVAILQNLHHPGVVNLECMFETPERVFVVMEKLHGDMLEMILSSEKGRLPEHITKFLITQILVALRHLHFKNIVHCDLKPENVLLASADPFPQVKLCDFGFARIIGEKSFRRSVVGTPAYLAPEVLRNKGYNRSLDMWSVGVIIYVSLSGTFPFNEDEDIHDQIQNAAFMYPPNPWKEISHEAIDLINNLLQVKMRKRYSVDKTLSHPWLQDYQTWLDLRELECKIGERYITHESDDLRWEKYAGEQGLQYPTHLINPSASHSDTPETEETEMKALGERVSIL
Experiment: Radiometric PKD1 inhibition assay
Type: biochemical
Conditions: stock solutions in 25% 3/NMP
Excerpt: Recently, a series of compounds with nanomolar to micromolar inhibitory activity against the serine/threonine protein kinase D (PKD) isoform PKD1 was disclosed (FIG. 7). Several lead structures, especially those containing a pyrimidine moiety, suffered from poor solubility not only in aqueous media but also in DMSO. To test the feasibility of using sulfoxide 3 as a cosolvent for in vitro assays, its use in the radiometric PKD1 inhibition assay was examined. Inhibitory activity at two concentrations (1 μM and 10 μM) was measured using compound stock solutions in three formulations: DMSO, NMP, and 25% 3/NMP (FIGS. 8 and 9).

CC1(C[S+]([O-])CC2(C)COC2)COC1 [Compound 3, 3,3′-Sulfinylbis(methylene)bis(3-methyloxetane)]
interference with PKD1 inhibition assay: did not interfere with the standard PKD1 inhibition assay
